For data set [1], the system named is Caenorhabditis elegans. Briefly: Primary screen, infrared-based (WMicroTracker ONE) C. elegans L4 motility assay at 40 µM. In kind it is cell-based, Caenorhabditis elegans (Bristol N2). The following applies: primary screen at 40 µM; for C. elegans Mean motility vs. DMSO control (%): C. elegans L4; for C. elegans NOTES (HIT): hit if motility < 25%. As for the experimental part: (§1) Methods to cultivate C. elegans (Bristol N2) and synchronize growth to the L4 stage were as described. WMicroTracker ONE (Phylumtech, Argentina) detects movement by measuring the scattering of infrared light beams that are projected into each well of a microtiter plate (two 880 nm beams/well in a 96w plate).
(§2) Synchronized C. elegans L4 were detached from agar and collected in M9 buffer. Worms were centrifuged for 1 min at 1,900 g and washed in S medium to decrease the concentration of E. coli OP50 that might interfere with infrared detection. Control and assay compounds (1 µL) in DMSO (Fisher Scientific, Cat# BP231-100) were spotted into each well of a clear, flat-bottomed 96-well polystyrene plate (Fisherbrand, Cat# FB012931). DMSO (1%) was used as the negative control. Approximately 70 L4 in 100 µL S medium were added per well. First pass screens employed 40 µM compound, and motility was measured every 20 min for 24 h in the WMicroTracker ONE reader in which the temperature was 25 ± 1 °C. Motility was normalized relative to the DMSO controls. Hits were defined as compounds that decreased motility to ≤ 25% of that in DMSO control worms.

Data set [2] relates to Caenorhabditis elegans. Nature of the data set: Concentration response C. elegans L4 motility assay (WMicroTracker ONE), EC50. The class given is cell-based, Caenorhabditis elegans (Bristol N2). To be noted: read-out: EC50 (motility). As for the experimental part: as §1, §2
For potent compounds, concentration response assays (nine concentrations: 0.005 µM to 40 or 100 µM) were conducted to measure the half-maximal effective concentration (EC50). Compounds were serially diluted in DMSO using 96-well, v-bottomed polypropylene dilution plates (ThermoFisher Scientific, Cat#: 249944) and 1 µL aliquots spotted into each well of the assay plates. Motility was measured as described above. Prism GraphPad, Version 8.0 (GraphPad Software, San Diego, CA) was used to calculate EC50 values using a non-linear sigmoidal four parameter logistic curve.

Data set [3] deals with HEK293 cells. Nature of the data set: HEK293 cytotoxicity assay (resazurin). In kind it is cell-based, Human. As for the experimental part: (§3) Potent compounds were also evaluated for cytotoxicity against HEK293 cells. Cells were cultured at 37 °C and 5% in Dulbecco’s Modified Eagle Medium (DMEM; Gibco, Cat#: 11965-092) containing 10% heat-inactivated fetal bovine serum (FBS; Omega Scientific Inc., Cat#: FB02) and 1% penicillin-streptomycin (ThermoFisher Scientific, Cat#: 15140122), and then sub-cultured when 60–80% confluent. Cells were detached with 0.05% trypsin/EDTA (ThermoFisher Scientific, Cat#: 25300054) and centrifuged for 5 min at 1,900 g.
(§4) Screens were performed over 11 compound concentrations (0.00007–40 µM) that had been prepared in DMSO. Aliquots (1 µL) were spotted into each well of a clear-bottomed, 96-well, polystyrene assay plate (Fisher Scientific, Cat#: FB012931). Approximately 20,000 HEK293 cells in 99 µL of the above supplemented DMEM were then added to each well. After 46 h at 37 °C and 5% CO2, 20 µL 0.5 mM resazurin (ThermoFisher Scientific, Cat#: B21187.03) were added and the incubation continued for 2 h at 37 °C [27]. Fluorescence was measured in a 2104 EnVision Multilabel Plate Reader (PerkinElmer) at 560 and 590 nm excitation and emission wavelengths, respectively. Raw data were exported from the EnVision Workstation software (version 1.13.3009.1401; PerkinElmer) into Prism GraphPad, and the half-maximal cytotoxic concentration (CC50) values were calculated using a non-linear regression curve.
In general terms: Resazurin is reduced to fluorescent resorufin, in cell work by metabolically active cells.

The test system of data set [4] is C. elegans L4. More on the design: method as in PMID 38486232. The following applies: GHPB screen, WMicroTracker ONE; cited from earlier work.
The subject of data set [5] is Haemonchus contortus. The arrangement: method as in PMID 38486232. To be noted: GHPB screen, WMicroTracker ONE; cited from earlier work.
Data set [6] in a line: HEK293 cytotoxicity assay (resazurin). To be noted: human, HEK293 cell viability after 48 h, read-out: CC50. The class given is cell-based, Human. As for the experimental part: as §3, §4
Data set [7] deals with C. elegans. To be noted: read-out: EC50 previously recorded, cited from earlier work.

Where “and” joins values, the source holds several entries; their conditions need not be identical. Equal values may be shown once. Read-outs that look alike come from different tables or passages of the source.

Consider `O=C(Nc1ccc(Cl)c(C(F)(F)F)c1)Nc1ccc(Cl)c(C(F)(F)F)c1` [flucofuron], for which, in data set [1], the “C. elegans Mean motility vs. DMSO control (%)” value worked out at 20.31% and the “C. elegans NOTES (HIT)” value is “HIT”. For the same compound, the EC50 in data set [2] (C. elegans L4, after 24 h) came to 20600 ± 10700 nM. This compound had a CC50 in data set [3] (HEK293 cell viability after 48 h) of 453 ± 331 nM. For the same compound, the “hit in screen against C. elegans L4” value in data set [4] is reported as “hit only against the parasite”. For the same compound, the “hit in screen against exsheathed L3 of Haemonchus contortus” value in data set [5] is given as “hit”.
On to `CC(F)c1ncnc(NCCc2ccc(OC(F)(F)F)cc2)c1Cl` (centres unmarked) [flufenerim], for which, in data set [1], the “C. elegans Mean motility vs. DMSO control (%)” value was found to be 0.26% and the “C. elegans NOTES (HIT)” value was “HIT”. The EC50 in data set [2] (C. elegans L4, after 12 h) was found to be 211 ± 34 nM. Further, the “hit in screen against C. elegans L4” value in data set [4] was “hit”. In addition, the “hit in screen against exsheathed L3 of Haemonchus contortus” value in data set [5] is on record as “hit”.
For `COc1ccc2c(c1)c(CC(=O)O)c(C)n2C(=O)c1ccc(Cl)cc1` [indomethacin, reference compound], in data set [1], the “C. elegans Mean motility vs. DMSO control (%)” value stood at 18.64% and the “C. elegans NOTES (HIT)” value was “HIT”. Further, the EC50 in data set [2] (Caenorhabditis elegans, C. elegans L4, after 24 h) is 23200 ± 14100 nM. In data set [6] (HEK293 cells), the CC50 at 48 h was above 100000 nM. Besides, the “cytotoxicity to HEK293 cells (in words)” value in data set [3] (HEK293 cells) was “not cytotoxic”.
As for `CO[C@H]1C[C@H](O[C@@H]2/C(C)=C/C[C@@H]3C[C@@H](C[C@]4(CC[C@H](C)[C@@H](C5CCCCC5)O4)O3)OC(=O)[C@@H]3C=C(C)/C(=N/O)[C@H]4OC/C(=C\C=C\[C@@H]2C)[C@]43O)O[C@@H](C)[C@@H]1O` [selamectin, reference compound], in data set [1], the “C. elegans Mean motility vs. DMSO control (%)” value is 2.31% and the “C. elegans NOTES (HIT)” value is “HIT”. For the same compound, in data set [2] (Caenorhabditis elegans, C. elegans L4, after 3 h), the EC50 was found to be 722 ± 555 nM. The half-maximal cytotoxic concentration (CC50) at 48 h in data set [6] turned out to be 9880 ± 4260 nM.
Regarding `CCc1nn(C)c(C(=O)NCc2ccc(Oc3ccc(C)cc3)cc2)c1Cl` [tolfenpyrad], in data set [1], the “C. elegans Mean motility vs. DMSO control (%)” value was found to be 0.26% and the “C. elegans NOTES (HIT)” value is listed as “HIT”. The EC50 in data set [2] (Caenorhabditis elegans, C. elegans L4, after 12 h) came to 950 ± 256 nM. Besides, the CC50 at 48 h in data set [6] is 33800 ± 31400 nM. Further, the EC50 in data set [7] (after 24 h) was 200 ± 40 nM.
For the compound ivermectin [reference compound], the “C. elegans Mean motility vs. DMSO control (%)” value in data set [1] (listed as MMV672931) is 3.37% and 9.96%. The “C. elegans NOTES (HIT)” value in data set [1] is “HIT”. The concentration giving a half-maximal response (EC50) was 130 ± 51 nM in data set [2] (C. elegans L4, after 1 h) and 190 ± 10 nM in data set [7] (after 90 min).

For orientation: EC50 means the concentration giving half of the maximal effect. As a reminder, the CC50 is the concentration giving 50% cytotoxicity.

These data come from paper PMC12502323, “Discovery of small molecules with anthelmintic potential in the Medicines for Malaria Venture’s COVID and Global Health Priority Boxes using an infrared-based assay for Caenorhabditis elegans motility” (BMC Research Notes, 2025).
